According to patent US20240075050A1, “Methods and Compositions for Treating Leucine Rich Repeat Kinase 2 (LRRK2)-Associated Disorder or Condition” (University of Connecticut, priority 2022, published 2024):

Assays:
DCP1A = DCP1A expression levels in SH-SY5Y cells, Western blot; format: cell-based, human; conditions: 1 mM, 48 hours
Protocol: FIGS. 6A-6E depict that the decapping enzyme complex DCP1/2 is involved in LRRK2 mRNA decay. FIGS. 6A and 6B depict the DCP1A and DCP2 expression levels upon AICAr treatment. SH-SY5Y cells were treated with or without 1 mM AICAr for 48 hours. DCP1A and DCP2 expression levels were analyzed by Western blot. Images were quantified by ImageJ software. Data are mean±SEM, n=3 independent experiments. **p<0.01 by Student's t tests. FIGS. 6C and 6D depict the LRRK2 expression levels upon DCP1A or DCP2 overexpression. SH-SY5Y cells were transduced with lentiviruses carrying Flag-DCP1A or Flag-DCP2 for 48 hours. LRRK2 expression levels were analyzed by Western blot. Images were quantified by ImageJ software. Data are mean±SEM, n=3 independent experiments. *p<0.05 by Student's t tests. FIG. 6E depict LRRK2 mRNA decapping by DCP1A and DCP2. Recombinant DCP1A and DCP2 proteins were purified from HEK 293T cells and incubated with [α-32P]cap-labeled LRRK2 RNA. LRRK2 mRNA decapping was analyzed by one-dimensional thin layer chromatography.

LRRK2 = assay: Overexpressed LRRK2 levels in HEK 293T cells, Western blot; format: cell-based, human
Protocol: FIGS. 2A-2T depicts that AICAr, the precursor of ATIC substrate, regulates LRRK2 expression levels and neuronal toxicity. FIGS. 2A and 2B depict the overexpressed LRRK2 levels in HEK 293T cells upon AICAr treatment. HEK293 cells were transfected with MYC-LRRK2 and treated with or without 1 mM AICAr for 48 hours. LRRK2 levels were analyzed by Western blot. FIGS. 2C and 2D depict the LRRK2 expression levels in SH-SY5Y cells upon AICAr treatment. Human neuroblastoma SH-SY5Y cells were treated with or without 1 mM AICAr for 48 hours. LRRK2 expression levels were analyzed by Western blot. FIGS. 2E and 2F depict the overexpressed (3-glucocerebrosidase (GCase) levels upon AICAr treatment. HEK 293T cells were transfected with V5-GCase and treated with or without 1 mM AICAr for 48 hours. GCase levels were analyzed by Western blot. FIGS. 2G-2N depict the LRRK2 expression levels in primary neurons (FIG. 2G and FIG. 2H), microglia (FIG. 2I and FIG. 2J), astrocytes (FIG. 2K and FIG. 2L) and human fibroblasts (FIG. 2M and FIG. 2N) upon AICAr treatment. Mouse primary cortical neurons, microglia, astrocytes or human fibroblasts from a health control were treated with or without 1 mM AICAr for 48 hours. LRRK2 expression levels were analyzed by Western blot. FIGS. 2O and 2P depict the overexpressed LRRK2 WT and pathogenic mutant levels upon AICAr treatment. HEK 293T cells were transfected with MYC-LRRK2 WT, R1441C (RC), R1441G (RG), Y1699C (YC), G2019S (GS) or I2020T (IT) and treated with or without 1 mM AICAr for 48 hours. LRRK2 expression levels were analyzed by Western blot. FIGS. 2Q and 2R depict the LRRK2 expression levels in mouse striatum upon AICAr treatment. AICAr (72 μg/day/animal) or saline (used as a control) was injected into mouse striatum via osmotic pumps. One day after injection, striatal tissues near the injection sites were collected and LRRK2 expression levels were analyzed by Western blot. Images were quantified by ImageJ software. Data are mean±SEM from total six mice (three male mice and three female mice). ****p<0.0001 by Student's t tests. […] FIG. 2T depicts the quantification of neuronal viability. Bars indicate the viability (n>100) for each transfection condition expressed as a percent of control neurons (eGFP with pcDNA3.1 empty vector). Data represent the mean±SEM from three independent experiments with n>100 cells quantified in each experiment. *p<0.05, ***p<0.001, ****p<0.0001 by one-way ANOVA followed by a Tukey's post hoc test.
FIGS. 3A-3J depict that AICAr regulates LRRK2 at mRNA level and through a specific region. […] LRRK2 expression levels were analyzed by Western blot. Images were quantified by ImageJ software. […] LRRK2 and GBA mRNA levels were analyzed by real-time PCR. […] LRRK2 mRNA levels were analyzed by real-time PCR. […]

NC(=O)c1ncn([C@@H]2O[C@H](CO)[C@@H](O)[C@H]2O)c1N [AICAr, 5-aminoimidazole-4-carboxamide riboside]
endogenous levels of DCP1A (DCP1A): significantly increased
native LRRK2 cDNA expression (LRRK2; HEK 293T, Flag-LRRK2 native cDNA, 1 mM, 48 hours): great suppress
expression of synthesized LRRK2 cDNA with synonymous codons (LRRK2; HEK 293T, Flag-LRRK2 synthesized cDNA, 1 mM, 48 hours): no obvious effects
overexpressed LRRK2 levels (LRRK2; HEK293 cells transfected with MYC-LRRK2, 1 mM, 48 hours): decreased
chimeric LRRK2 cDNA expression (LRRK2; synthesized cDNA with region 2221-3927 bp replaced by native sequence): great suppression
